Results on 24 molecules are retold here after ChEMBL document CHEMBL1201862, “PubChem BioAssay data set” (2004).

Each structure is given as a SMILES string. Calls of active or inactive are those of the source.

The target of assay [1] is T1, DNA repair protein RAD52 homolog (Homo sapiens, UniProt P43351).
T1 sequence (P43351 whole entry): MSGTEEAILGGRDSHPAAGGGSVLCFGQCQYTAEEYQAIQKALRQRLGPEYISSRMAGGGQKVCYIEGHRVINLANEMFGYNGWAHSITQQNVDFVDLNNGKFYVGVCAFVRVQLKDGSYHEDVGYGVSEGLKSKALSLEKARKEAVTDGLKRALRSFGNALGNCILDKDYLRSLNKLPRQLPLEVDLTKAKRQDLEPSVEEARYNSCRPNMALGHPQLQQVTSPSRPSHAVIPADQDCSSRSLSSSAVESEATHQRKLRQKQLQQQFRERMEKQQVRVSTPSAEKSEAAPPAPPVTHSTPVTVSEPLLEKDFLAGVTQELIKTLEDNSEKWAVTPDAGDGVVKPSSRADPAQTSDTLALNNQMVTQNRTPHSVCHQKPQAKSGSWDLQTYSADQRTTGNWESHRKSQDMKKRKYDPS
The format is functional, biochemical.

The target in assay [2] is T2, DNA repair and recombination protein RAD54-like (Homo sapiens, UniProt Q92698).
T2 sequence (Q92698 whole entry): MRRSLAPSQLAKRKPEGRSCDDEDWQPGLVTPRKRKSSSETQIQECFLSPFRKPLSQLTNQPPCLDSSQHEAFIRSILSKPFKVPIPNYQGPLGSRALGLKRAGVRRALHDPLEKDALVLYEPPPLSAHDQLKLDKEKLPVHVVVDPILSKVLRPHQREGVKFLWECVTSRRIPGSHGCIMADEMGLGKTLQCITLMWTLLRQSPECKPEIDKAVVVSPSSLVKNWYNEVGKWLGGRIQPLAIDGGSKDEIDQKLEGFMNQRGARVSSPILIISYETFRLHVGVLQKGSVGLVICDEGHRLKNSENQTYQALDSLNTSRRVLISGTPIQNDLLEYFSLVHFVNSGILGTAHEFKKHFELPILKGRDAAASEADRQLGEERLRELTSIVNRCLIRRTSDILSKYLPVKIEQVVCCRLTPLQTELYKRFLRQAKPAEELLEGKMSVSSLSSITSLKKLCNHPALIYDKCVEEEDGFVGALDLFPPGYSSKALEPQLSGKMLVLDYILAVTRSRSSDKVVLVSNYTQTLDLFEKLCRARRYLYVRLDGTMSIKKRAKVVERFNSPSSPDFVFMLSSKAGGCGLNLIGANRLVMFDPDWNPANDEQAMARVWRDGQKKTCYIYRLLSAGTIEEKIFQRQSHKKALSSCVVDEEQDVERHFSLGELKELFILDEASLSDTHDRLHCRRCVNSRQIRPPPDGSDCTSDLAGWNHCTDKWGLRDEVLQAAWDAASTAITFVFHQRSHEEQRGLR
Nature of the assay: inhibitors of human RAD54 branch migration, confirmation, biochemical, fluorescence, cherry-picked samples, dose series (AID 651657). The class given is functional.

Assay [3] addresses T3, Short transient receptor potential channel 4 (Mus musculus, UniProt Q9QUQ5).
T3 sequence (Q9QUQ5 whole entry): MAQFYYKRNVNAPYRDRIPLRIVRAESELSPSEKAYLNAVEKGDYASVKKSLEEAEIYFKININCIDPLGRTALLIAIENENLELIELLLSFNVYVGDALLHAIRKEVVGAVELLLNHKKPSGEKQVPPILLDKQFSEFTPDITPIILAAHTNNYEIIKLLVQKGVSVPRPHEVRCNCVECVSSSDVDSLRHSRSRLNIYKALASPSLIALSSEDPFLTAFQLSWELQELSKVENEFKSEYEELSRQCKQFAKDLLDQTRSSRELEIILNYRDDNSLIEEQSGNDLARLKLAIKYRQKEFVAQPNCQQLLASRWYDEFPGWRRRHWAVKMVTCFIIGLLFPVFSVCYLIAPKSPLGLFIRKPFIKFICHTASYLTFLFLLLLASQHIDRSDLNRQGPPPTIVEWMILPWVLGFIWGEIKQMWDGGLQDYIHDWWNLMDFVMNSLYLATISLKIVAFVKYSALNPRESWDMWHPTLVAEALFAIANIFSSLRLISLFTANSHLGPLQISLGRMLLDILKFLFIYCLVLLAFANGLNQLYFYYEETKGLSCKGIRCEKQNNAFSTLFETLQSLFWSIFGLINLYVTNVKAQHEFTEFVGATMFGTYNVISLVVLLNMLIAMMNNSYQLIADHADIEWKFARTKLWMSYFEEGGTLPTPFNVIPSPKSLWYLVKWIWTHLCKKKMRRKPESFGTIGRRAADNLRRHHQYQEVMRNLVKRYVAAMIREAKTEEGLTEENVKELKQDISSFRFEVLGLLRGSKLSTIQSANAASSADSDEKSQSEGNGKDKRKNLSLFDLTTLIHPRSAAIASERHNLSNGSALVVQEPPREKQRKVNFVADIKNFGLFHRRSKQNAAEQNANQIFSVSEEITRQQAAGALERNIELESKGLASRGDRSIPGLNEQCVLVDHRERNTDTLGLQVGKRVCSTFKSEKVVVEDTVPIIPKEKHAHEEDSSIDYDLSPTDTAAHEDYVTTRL
The assay is described as follows: mouse TRPC4 channel inhibitors, dose response, cell-based, HEK293 TRPC4/mu-opioid, Fluo-4 calcium (AID 434942).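 Note: potency of inhibitors blocking the TRPC4 calcium response.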 The class given is functional.

A further assay has as its system Escherichia coli. Nature of the assay: microbe, parasite or virus in culture.
For assay [4], the target named is T3, Short transient receptor potential channel 4. Nature of the assay: mouse TRPC4 channel activators, dose response, cell-based, HEK293 TRPC4/mu-opioid, Fluo-4 calcium (AID 434937). The class given is functional.
Another assay addresses T4, Aminopeptidase N (Plasmodium falciparum FcB1/Columbia, UniProt O96935).
T4 sequence (O96935 whole entry): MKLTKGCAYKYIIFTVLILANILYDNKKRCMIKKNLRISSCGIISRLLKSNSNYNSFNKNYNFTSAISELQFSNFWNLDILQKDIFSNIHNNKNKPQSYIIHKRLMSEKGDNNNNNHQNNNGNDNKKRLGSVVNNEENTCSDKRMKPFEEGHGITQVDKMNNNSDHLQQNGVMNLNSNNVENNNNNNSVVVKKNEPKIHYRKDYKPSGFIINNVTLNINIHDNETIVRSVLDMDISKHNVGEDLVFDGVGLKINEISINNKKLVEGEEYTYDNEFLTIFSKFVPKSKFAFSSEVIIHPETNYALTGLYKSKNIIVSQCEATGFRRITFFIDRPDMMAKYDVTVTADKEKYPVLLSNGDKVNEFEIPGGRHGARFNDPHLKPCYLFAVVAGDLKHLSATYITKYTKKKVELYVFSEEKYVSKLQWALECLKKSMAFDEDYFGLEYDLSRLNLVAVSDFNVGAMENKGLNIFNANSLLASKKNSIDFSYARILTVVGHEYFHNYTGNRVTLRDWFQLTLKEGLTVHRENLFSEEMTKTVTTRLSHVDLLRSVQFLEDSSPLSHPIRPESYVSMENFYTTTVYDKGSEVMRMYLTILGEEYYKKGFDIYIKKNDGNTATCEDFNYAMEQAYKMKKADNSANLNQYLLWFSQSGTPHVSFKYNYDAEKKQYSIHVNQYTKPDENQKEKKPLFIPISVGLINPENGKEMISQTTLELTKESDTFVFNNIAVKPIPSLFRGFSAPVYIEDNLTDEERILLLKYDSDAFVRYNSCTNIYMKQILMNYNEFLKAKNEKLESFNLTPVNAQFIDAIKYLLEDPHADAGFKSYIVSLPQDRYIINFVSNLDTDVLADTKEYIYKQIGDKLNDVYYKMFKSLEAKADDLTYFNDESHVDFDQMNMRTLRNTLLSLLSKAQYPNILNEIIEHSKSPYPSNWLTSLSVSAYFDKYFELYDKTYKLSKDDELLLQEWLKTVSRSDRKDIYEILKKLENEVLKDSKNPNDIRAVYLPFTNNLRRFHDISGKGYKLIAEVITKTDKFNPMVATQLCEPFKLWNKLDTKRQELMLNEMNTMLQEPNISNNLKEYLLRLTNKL
The assay is described as follows: P. falciparum M1AAP inhibitors, biochemical, fluorogenic H-Leu-NHMec substrate, 1536-well (AID 1445). Also on record: species or system Plasmodium falciparum 3D7, 3D7.

A further assay deals with Cytochrome P450 2C19 (Homo sapiens, UniProt P33261). Nature of the assay: Cytochrome panel assay with activity outcomes. Panel member name: p450-cyp2c19 Compounds with AC50 equal or less than 10 uM are considered active. The format is functional. As to conditions: read-out: AC50.
Assay [5] in a line: HEp-2 cell cytotoxicity, dose response, cytotoxicity control for RSV inhibitor project, HTS (AID 2410). The class given is functional. The note with it: human respiratory syncytial virus.
A short description of assay [6]: cells. The format is functional, cell-based.
In assay [7] the test system is Streptococcus sp. 'group A'. Nature of the assay: growth inhibition of control SK(-) GAS strain, dose response, counter-screen for streptokinase expression inhibitor project, luminescence, kanamycin, BacTiterGlo, confirmation (AID 1900). The class given is functional, organism-based.
Assay [8] in a line: C. albicans growth with fluconazole, confirmation, fluorescence, retest (AID 2467). The class given is functional, cell-based.
The nature of assay [9]: cells. The format is functional, cell-based. This is another data set of the same source.
The next assay deals with Streptococcus. Nature of the assay: Group A Streptococcus viability loss, dose response, counter-screen for streptokinase expression inhibitor project, luminescence, BacTiterGlo (AID 1915).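 Note: potency for reduction of bacterial viability or growth.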 The class given is functional, organism-based.
The nature of assay [10]: NIH-3T3 fibroblast cytotoxicity, dose response, cytotoxicity control, cell-based, fluorescence, Alamar Blue, secondary assay (AID 2327).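 Note: NIH-3T3 mouse fibroblasts cultured with fluconazole at 8 µg/mL.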 The class given is functional.
The target in assay [11] is Heat shock protein HSP 90-alpha (Homo sapiens, UniProt P07900). The class given is functional, organism-based.
The nature of assay [12]: Fluorescence-based cell-based high throughput dose response assay for inhibitors of the interaction of nucleotide-binding oligomerization domain containing 2 (NOD2) and the receptor-interacting serine-threonine kinase 2 (RIPK2). The class given is functional, Homo sapiens.

Chain of Cytochrome P450 2C19 (P33261 whole entry): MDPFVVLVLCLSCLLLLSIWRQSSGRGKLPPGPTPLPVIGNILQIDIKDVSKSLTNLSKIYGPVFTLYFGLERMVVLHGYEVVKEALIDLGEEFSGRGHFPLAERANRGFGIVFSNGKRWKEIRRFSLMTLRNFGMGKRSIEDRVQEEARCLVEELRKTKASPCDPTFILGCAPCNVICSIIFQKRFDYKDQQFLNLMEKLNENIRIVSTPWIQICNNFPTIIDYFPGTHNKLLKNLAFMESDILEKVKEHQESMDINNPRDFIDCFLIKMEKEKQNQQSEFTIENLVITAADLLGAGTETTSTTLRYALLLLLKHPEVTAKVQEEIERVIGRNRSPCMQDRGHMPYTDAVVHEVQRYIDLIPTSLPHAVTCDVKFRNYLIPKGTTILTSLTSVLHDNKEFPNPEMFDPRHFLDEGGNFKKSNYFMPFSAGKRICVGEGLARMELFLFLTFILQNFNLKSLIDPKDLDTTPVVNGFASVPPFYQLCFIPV

Consider `CCCCN(CC)CCCNC(=O)c1cc2c(-c3ccc(OC)c(OC)c3)nn(C)c2s1`, for which the AC50 is 3.21 µM (active) in [1] and 9.31 µM (active) in [2].

In the case of `NC(=O)CN1CCN(CCN2C(=O)c3cccc4cccc(c34)C2=O)CC1`, the concentration at half-maximal activity (AC50) was 12.1 µM (active) in assay [1] and 13.3 µM (active) in assay [2].

With `CCC(C)NC(C(=O)Nc1ccc(Cl)c([N+](=O)[O-])c1)c1ccccc1` (stereo not given), in assay [3], the concentration for a half-maximal effect (EC50) was 7.5 µM (active).

In the case of `Cc1ccc(O)c(Sc2cc(C)ccc2O)c1`, the EC50 in assay [3] was 3.76 µM (active).

As to `Cc1ccc(NC(=O)c2ccc(Oc3ncccn3)cc2)cc1`, in the assay with Escherichia coli, the half-maximal activity concentration (AC50) is 37.9 µM (active).

`OC(CNC1CCCc2ccccc21)COc1ccc2ccccc2c1` (stereo not given): in assay [4], the EC50 is 5.96 µM (active).

Consider `Cc1ccc(-c2csc(N(CCCN(C)C)C(=O)c3ccco3)n2)cc1`, for which the concentration at half-maximal activity (AC50) in assay [1] was 11.7 µM (active). Moreover, in [3], the concentration for a half-maximal effect (EC50) is 2.11 µM (active).

On to `COc1ccccc1-n1nc(C(=O)Nc2ccc3c(c2)OCO3)c2ccccc2c1=O`, for which, in the assay on Escherichia coli, the AC50 is 74.7 µM (active).

In the case of `CC1CC(C)CN(CCCNC(=O)COc2cc(=O)n(C)c3ccccc23)C1` (stereo not given), the EC50 in assay [4] is 0.749 µM (active).

As for `O=C(O)c1ccc(NC(S)=NC(NC(=O)c2ccco2)C(Cl)(Cl)Cl)cc1` (stereo not given), the IC50 at Aminopeptidase N was 60.5 µM (active).

Turning to `Cc1cc(=O)oc2cc3c(cc12)OCCN3`, the IC50 at Aminopeptidase N is 32.8 µM (active).

Regarding `CCN(CC)CCNC(=O)c1cc2c(=O)n(C)c3ccccc3c2n1C`, the half-maximal activity concentration (AC50) in [2] was 18.3 µM (active).

For `O=C(NC1CCN(Cc2ccccc2)CC1)C12CC3CC(CC(C3)C1)C2`, in [4], the EC50 is 1.5 µM (active).

Turning to `Cc1c(O)c(CN2CCCC2)cc2c3c(c(=O)oc12)CCC3`, at Aminopeptidase N, the IC50 was 42.6 µM (active).

`O=C(O)C1C2C=CC(C2)C1C(=O)N1CCN(C/C=C/c2ccccc2)CC1` (stereo not given): on Cytochrome P450 2C19, the concentration at half-maximal activity (AC50) is 14.1 µM (inconclusive). Further, in [4], the EC50 is 5.96 µM (active).

Turning to `COC(=O)Cc1c(C)c2ccc(O)c(CN3CCCC(C)C3)c2oc1=O` (stereo not given), on Aminopeptidase N, the IC50 was 30 µM (active).

In the case of `O=C1NC(=O)N(CCc2ccccc2)C(=O)/C1=C/NCc1ccc2c(c1)OCO2`, the AC50 in the assay on Escherichia coli was 43.4 µM (active).

`CCOc1ncccc1C(=O)N(CC)CC(=O)Nc1ccc(NC(C)=O)cc1`: the concentration at half-maximal activity (AC50) with Escherichia coli is 96.8 µM (active).

On to `O=Cc1cc(N=Nc2ccccc2Cl)ccc1O`, for which the 50% cytotoxic concentration (CC50) in assay [5] was 7.07 µM (active). The 50% effective concentration (EC50) in “cells [6]” is > 350 µM (not active); in [7], 5.05 µM (active); in assay [8] it was > 38 µM (not active); in “cells [9]”, 198 µM (active); in the assay with Streptococcus, 6.24 µM (active); in assay [3], 15 µM (active). In addition, in assay [10], the EC50 is > 160 µM (inactive).

With `OC(Cn1cncn1)(c1ccccc1)c1ccccc1`, in [11], the AC50 was 1.43 µM (active).

Regarding `CC1CCCCN1S(=O)(=O)c1ccc(NC(=O)c2ccco2)cc1` (stereo not given), in the assay on Escherichia coli, the AC50 is 32.1 µM (active).

As for `Cc1cc(C)c2nc(C)cc(Nc3ccc(C(=O)NCCO)cc3)c2c1`, the AC50 in assay [2] is 32.6 µM (active).

For the molecule `CC(=O)OC1CC2OC3C=C(C)CCC3(C)C1(C)C21CO1` (stereo not given), the IC50 in assay [12] is 49.8 µM (inactive).

On to `COc1ccc(-n2nc(C(=O)NCC(=O)NCCCN3CC(C)CC(C)C3)c3ccccc3c2=O)cc1Cl` (stereo not given), for which the EC50 in assay [4] was 1.5 µM (active).
